Results reported in patent US20100068181A1, “PYRROLO [3, 2-A] PYRIDINE DERIVATIVES FOR INHIBITING KSP KINESIN ACTIVITY” (Schering Corporation, priority 2006, published 2010).

The compounds below were run against T1, KSP (Homo sapiens, UniProt P52732) (assay: KSP inhibitory activity, end-point assay). Settings: KSP inhibitory activity based on end-point assay; read-out: IC50 Rating.
T1 sequence (P52732 1-1056): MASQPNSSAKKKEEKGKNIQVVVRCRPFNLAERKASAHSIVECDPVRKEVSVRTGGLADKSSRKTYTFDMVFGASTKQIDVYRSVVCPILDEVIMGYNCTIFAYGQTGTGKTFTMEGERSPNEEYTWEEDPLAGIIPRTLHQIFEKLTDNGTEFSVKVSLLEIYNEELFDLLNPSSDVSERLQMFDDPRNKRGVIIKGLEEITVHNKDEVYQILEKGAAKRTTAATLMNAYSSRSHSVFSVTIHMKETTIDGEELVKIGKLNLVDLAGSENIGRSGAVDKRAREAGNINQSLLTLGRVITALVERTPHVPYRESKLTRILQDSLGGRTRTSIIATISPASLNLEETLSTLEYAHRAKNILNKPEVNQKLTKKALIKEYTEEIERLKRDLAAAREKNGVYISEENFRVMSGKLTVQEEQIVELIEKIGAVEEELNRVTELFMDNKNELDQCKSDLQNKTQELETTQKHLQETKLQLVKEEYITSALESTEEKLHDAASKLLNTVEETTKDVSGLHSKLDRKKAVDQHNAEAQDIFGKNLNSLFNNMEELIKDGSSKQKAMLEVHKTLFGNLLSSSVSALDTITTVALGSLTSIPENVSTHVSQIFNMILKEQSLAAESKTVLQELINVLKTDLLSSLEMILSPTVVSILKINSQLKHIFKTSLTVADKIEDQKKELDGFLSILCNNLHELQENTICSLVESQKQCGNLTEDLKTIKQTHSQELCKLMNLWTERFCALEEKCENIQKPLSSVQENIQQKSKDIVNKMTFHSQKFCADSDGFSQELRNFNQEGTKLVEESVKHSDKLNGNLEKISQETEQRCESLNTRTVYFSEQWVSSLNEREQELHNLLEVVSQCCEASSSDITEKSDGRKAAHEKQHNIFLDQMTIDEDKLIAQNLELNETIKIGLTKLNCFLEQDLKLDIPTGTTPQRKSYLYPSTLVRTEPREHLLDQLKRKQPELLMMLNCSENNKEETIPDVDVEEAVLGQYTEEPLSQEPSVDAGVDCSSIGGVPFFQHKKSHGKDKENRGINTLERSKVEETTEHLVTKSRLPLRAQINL
Format: biochemical
Excerpt: The inhibitory activity of the present compounds towards KSP may be assayed by methods known in the art, for example, by using the methods as described in the examples.

Compound	IC50
CC(C)(C)[C@@H]1CCc2nc3cc(C(N)=O)[nH]c3cc2C1 (single isomer, unassigned) [Example 21A]	< 100 nM
CC(C)(C)[C@H]1CCc2nc3cc(C(N)=O)[nH]c3cc2C1 (single isomer, unassigned) [Example 21B]	100 to 1000 nM
CNC(=O)c1cc2nc3c(cc2[nH]1)C[C@H](C(C)(C)C)CC3 (single isomer, unassigned) [Example 22A]	< 100 nM
CNC(=O)c1cc2nc3c(cc2[nH]1)C[C@@H](C(C)(C)C)CC3 (single isomer, unassigned) [Example 22B]	100 to 1000 nM
CCOC(=O)c1cc2nc3c(cc2[nH]1)CC(C(C)(C)C)CC3 (stereo not shown) [Example 1]	1000 to 10000 nM
CC(C)(C)C1CCc2nc3cc(C(N)=O)[nH]c3cc2C1 (stereo not shown) [Example 2]	< 100 nM
CNC(=O)c1cc2nc3c(cc2[nH]1)CC(C(C)(C)C)CC3 (stereo not shown) [Example 3]	< 100 nM
CCNC(=O)c1cc2nc3c(cc2[nH]1)CC(C(C)(C)C)CC3 (stereo not shown) [Example 4]	100 to 1000 nM
CC(C)(C)C1CCc2nc3cc(C(=O)NCCCCN)[nH]c3cc2C1 (stereo not shown) [Example 5]	100 to 1000 nM
CC(C)(C)C1CCc2nc3cc(C(=O)NCCN)[nH]c3cc2C1 (stereo not shown) [Example 6]	100 to 1000 nM
CC(C)(C)C1CCc2nc3cc(C(=O)NCCO)[nH]c3cc2C1 (stereo not shown) [Example 7]	100 to 1000 nM
CC(C)(C)C1CCc2nc3cc(C(=O)NCCCN)[nH]c3cc2C1 (stereo not shown) [Example 8]	1000 to 10000 nM
CC(C)(C)C1CCc2nc3cc(C(=O)NCCCO)[nH]c3cc2C1 (stereo not shown) [Example 9]	100 to 1000 nM
CC(C)(C)C1CCc2nc3cc(C(=O)NCCCCCN)[nH]c3cc2C1 (stereo not shown) [Example 10]	100 to 1000 nM
CC(C)(C)C1CCc2nc3cc(C(=O)NCCCCCO)[nH]c3cc2C1 (stereo not shown) [Example 11]	1000 to 10000 nM
CC(C)(C)C1CCc2nc3cc(C(=O)NCCCCCCO)[nH]c3cc2C1 (stereo not shown) [Example 12]	> 10000 nM
CC(C)(C)C1CCc2nc3cc(C(=O)NCCCCO)[nH]c3cc2C1 (stereo not shown) [Example 13]	1000 to 10000 nM
CC(C)(C)C1CCc2nc3cc(C(=O)NCCCCCCN)[nH]c3cc2C1 (stereo not shown) [Example 14]	100 to 1000 nM

Compound	IC50
CC(C)(C)C1CCc2nc3cc(C(=O)NCCc4ccc(O)cc4)[nH]c3cc2C1 (stereo not shown) [Example 15]	> 10000 nM
CN1CCN(C(=O)c2cc3nc4c(cc3[nH]2)CC(C(C)(C)C)CC4)CC1 (stereo not shown) [Example 16]	> 10000 nM
CC(C)(C)C1CCc2nc3cc(C(=O)NN)[nH]c3cc2C1 (stereo not shown) [Example 17]	< 100 nM
CC(C)(C)C1CCc2nc3cc(C(=O)NCc4ccccc4)[nH]c3cc2C1 (stereo not shown) [Example 18]	> 10000 nM
CC(C)(C)C1CCc2nc3cc(C(=O)NCc4cccnc4)[nH]c3cc2C1 (stereo not shown) [Example 19]	> 10000 nM
C[C@@H](CO)NC(=O)c1cc2nc3c(cc2[nH]1)CC(C(C)(C)C)CC3 (stereo partly shown) [Example 20]	1000 to 10000 nM
CC(C)(C)C1CCc2nc3cc(CO)[nH]c3cc2C1 (stereo not shown) [Example 23]	< 100 nM
CC(C)(C)C1CCc2nc3cc(CN)[nH]c3cc2C1 (stereo not shown) [Example 25]	100 to 1000 nM
CC(C)(C)C1CCc2nc3c([N+](=O)[O-])c(C(N)=O)[nH]c3cc2C1 (stereo not shown) [Example 26]	> 10000 nM
CC(C)(C)C1CCc2nc3c(N)c(C(N)=O)[nH]c3cc2C1 (stereo not shown) [Example 27]	100 to 1000 nM
C=Cc1cc2nc3c(cc2[nH]1)CC(C(C)(C)C)CC3 (stereo not shown) [Example 28]	1000 to 10000 nM
CC(O)c1cc2nc3c(cc2[nH]1)CC(C(C)(C)C)CC3 (stereo not shown) [Example 29]	100 to 1000 nM
CC(=O)c1cc2nc3c(cc2[nH]1)CC(C(C)(C)C)CC3 (stereo not shown) [Example 30]	100 to 1000 nM
CC(=NO)c1cc2nc3c(cc2[nH]1)CC(C(C)(C)C)CC3 (stereo not shown) [Example 31]	> 10000 nM
CC(C)(C)C1CCc2nc3cc(COC(=O)c4ccccc4)[nH]c3cc2C1 (stereo not shown) [Example 32]	> 10000 nM
CC(C)(C)C1CCc2nc3cc(CC#N)[nH]c3cc2C1 (stereo not shown) [Example 33]	1000 to 10000 nM
CCOC(=O)c1[nH]c2cc3c(nc2c1Br)CCC(C(C)(C)C)C3 (stereo not shown) [Example 34]	> 10000 nM

Same assay, conditions: numerical IC50 values for representative compounds; read-out: IC50

Compound	IC50
CC(C)(C)[C@@H]1CCc2nc3cc(C(N)=O)[nH]c3cc2C1 (single isomer, unassigned) [Example 21A]	30 nM
CNC(=O)c1cc2nc3c(cc2[nH]1)C[C@H](C(C)(C)C)CC3 (single isomer, unassigned) [Example 22A]	20 nM
CC(C)(C)C1CCc2nc3cc(C(N)=O)[nH]c3cc2C1 (stereo not shown) [Example 2]	30 nM
CNC(=O)c1cc2nc3c(cc2[nH]1)CC(C(C)(C)C)CC3 (stereo not shown) [Example 3]	50 nM
CC(C)(C)C1CCc2nc3cc(CO)[nH]c3cc2C1 (stereo not shown) [Example 23]	40 nM
